The test deals with T1, mouse TRPM3α2 (mTRPM3) ion channel (Mus musculus, UniProt J9SQF3).
T1 construct: expressed in transfected cells; host or cells: flip-in HEK293 (Flp-In HEK293) overexpressing mTRPM3alpha2
Briefly: TRPM3 ion channel driven Ca2+ uptake, Fluo-4 AM assay, stimulated with pregnenolone sulfate (50 μM). The format is cell-based. Particulars: TRPM3 overexpressing flip-in HEK293 cells, PS 50 μM, 2.4 mM Ca2+. The procedure:
In order to monitor the inhibition of the mouse TRPM3α2 (mTRPM3) ion channel by the compounds of the invention, a cellular system making use of an mTRPM3alpha2 or hTRPM3 overexpressing cell line (flip-in HEK293) was used. The TRPM3 channel was stimulated/opened with Pregnenolone sulfate (PS) (50 μM) which results in Ca^2+ influx.
For mTRPM3, the intracellular Ca^2+ was measured with a Calcium responsive dye, Fluor-4 AM ester (Invitrogen). Cells were cultured until a confluence of 80-90%, washed with Versene (Invitrogen) and detached from the surface by a short incubation with 0.05% Trypsin (Invitrogen). The […] was stopped by the addition of complete cell culture medium (DMEM, glutamax, 10% FCS, NEAA, Pen-Strep). Cells were collected and resuspended in Krebs buffer without Calcium at RT.
Prior the cell seeding (±2000 cells/well into a black, 384 well plate (Greiner)) the diluted compound was added in the assay plate, together with the PS dissolved in Krebs buffer containing Calcium. […] Directly after cell addition the plates were read on an Envision fluorescence reader (Perkin Elmer) by an Excitation of 485 nm and emission at 535 nm.
Channel inhibition was calculated compared to a non-PS stimulated control versus a condition stimulated with PS (50 μM) with vehicle. The ability of the compounds of the invention to inhibit this activity was determined as: Percentage inhibition=[1−((RFU determined for sample with test compound present−RFU determined for sample with positive control inhibitor) divided by (RFU determined in the presence of vehicle−RFU determined for sample with positive control inhibitor))]*100.
The activities of the Example compounds cpd 001-091 tested are depicted in the table below. All tested compounds show an activity in the Fluo-4 AM assay. The activity ranges A, B and C refer to IC50 values in the Fluo-4 AM assay as follows: “A”: IC50<1 μM; “B”: 1 μM≤IC50≤20 μM and “C”: IC50>20 μM.

Where only a bound is given, the exact number is not on record here.

T1 sequence (J9SQF3 1-1709 isoform J9SQF3-12): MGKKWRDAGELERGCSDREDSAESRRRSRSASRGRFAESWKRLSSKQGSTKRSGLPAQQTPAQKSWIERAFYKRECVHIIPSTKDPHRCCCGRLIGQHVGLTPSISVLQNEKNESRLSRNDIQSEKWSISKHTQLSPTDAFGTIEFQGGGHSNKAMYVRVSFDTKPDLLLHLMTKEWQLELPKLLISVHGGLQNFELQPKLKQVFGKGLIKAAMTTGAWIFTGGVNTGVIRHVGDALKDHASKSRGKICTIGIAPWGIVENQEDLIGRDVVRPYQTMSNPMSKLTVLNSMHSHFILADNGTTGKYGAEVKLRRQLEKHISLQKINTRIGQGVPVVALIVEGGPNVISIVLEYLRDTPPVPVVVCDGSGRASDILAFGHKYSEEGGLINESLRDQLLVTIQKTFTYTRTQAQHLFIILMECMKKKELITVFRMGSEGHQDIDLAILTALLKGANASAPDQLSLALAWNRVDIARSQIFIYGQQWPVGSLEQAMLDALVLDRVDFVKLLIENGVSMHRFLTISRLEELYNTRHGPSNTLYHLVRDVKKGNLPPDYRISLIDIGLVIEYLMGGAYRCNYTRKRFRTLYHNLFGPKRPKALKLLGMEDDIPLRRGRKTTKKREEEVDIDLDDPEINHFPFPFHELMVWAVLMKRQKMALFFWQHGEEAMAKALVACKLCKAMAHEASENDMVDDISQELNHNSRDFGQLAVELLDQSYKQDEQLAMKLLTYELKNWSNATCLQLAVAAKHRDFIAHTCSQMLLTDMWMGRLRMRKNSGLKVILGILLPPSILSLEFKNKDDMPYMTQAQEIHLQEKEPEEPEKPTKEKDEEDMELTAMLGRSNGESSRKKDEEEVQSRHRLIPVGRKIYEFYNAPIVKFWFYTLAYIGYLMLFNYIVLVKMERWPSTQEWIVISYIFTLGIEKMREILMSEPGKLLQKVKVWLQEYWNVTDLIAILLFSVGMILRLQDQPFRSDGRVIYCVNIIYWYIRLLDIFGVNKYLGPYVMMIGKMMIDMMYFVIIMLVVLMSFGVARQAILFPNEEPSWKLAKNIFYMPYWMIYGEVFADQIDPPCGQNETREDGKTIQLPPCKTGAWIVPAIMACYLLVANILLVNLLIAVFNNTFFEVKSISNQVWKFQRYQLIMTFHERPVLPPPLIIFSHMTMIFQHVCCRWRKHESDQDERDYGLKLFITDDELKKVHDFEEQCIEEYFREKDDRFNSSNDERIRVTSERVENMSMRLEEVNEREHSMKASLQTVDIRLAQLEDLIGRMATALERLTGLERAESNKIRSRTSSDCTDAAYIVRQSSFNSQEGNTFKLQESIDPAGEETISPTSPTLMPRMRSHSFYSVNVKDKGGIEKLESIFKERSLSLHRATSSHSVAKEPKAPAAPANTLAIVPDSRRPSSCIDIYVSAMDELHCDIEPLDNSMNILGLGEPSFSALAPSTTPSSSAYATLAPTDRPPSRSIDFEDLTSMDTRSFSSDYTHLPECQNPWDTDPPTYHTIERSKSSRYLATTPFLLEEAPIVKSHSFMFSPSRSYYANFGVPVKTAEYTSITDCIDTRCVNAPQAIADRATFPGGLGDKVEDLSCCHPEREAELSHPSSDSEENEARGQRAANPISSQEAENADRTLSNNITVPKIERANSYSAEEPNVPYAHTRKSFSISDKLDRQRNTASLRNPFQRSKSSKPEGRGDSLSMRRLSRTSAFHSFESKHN

A word on the IC50: it is the point on the concentration scale where inhibition reaches its midpoint. Take `Cc1nn2ccc(OCc3ccccn3)cc2c1C(=O)NC(C)(CO)CC(F)F` (single isomer, unassigned) [Cpd 038 - En2, N-(4,4-difluoro-1-hydroxy-2-methylbutan-2-yl)-2-methyl-5-[(pyridin-2-yl)methoxy]pyrazolo[1,5-a]pyridine-3-carboxamide]: the concentration for half-maximal inhibition (IC50) was below 1 µM.

Molecule `Cc1nn2ccc(OCc3ccccn3)cc2c1C(=O)NC(C)(CO)C(N)=O` (single isomer, unassigned) [Cpd 089 - En2, 3-hydroxy-2-methyl-2-({2-methyl-5-[(pyridin-2-yl)methoxy]pyrazolo[1,5-a]pyridin-3-yl}formamido)propanamide] returned a half-inhibitory concentration (IC50) below 1 µM.

Consider `Cc1nn2ccc(OCc3ccccn3)cc2c1C(=O)NC1CNCC(F)(F)C1` (single isomer, unassigned) [Cpd 052 - En1, N-(5,5-difluoropiperidin-3-yl)-2-methyl-5-[(pyridin-2-yl)methoxy]pyrazolo[1,5-a]pyridine-3-carboxamide], for which the IC50 was in the range of 1 to 20 µM.

Molecule `Cc1nn2ccc(OCc3ccccn3)cc2c1C(=O)NCC(C)(C)CN(C)C` [Cpd 045, N-[3-(dimethylamino)-2,2-dimethylpropyl]-2-methyl-5-[(pyridin-2-yl)methoxy]pyrazolo[1,5-a]pyridine-3-carboxamide] returned an IC50 of 1 to 20 µM.

In turn, `Cc1nn2ccc(OCc3ccccn3)cc2c1C(=O)NC1CNCCC1(F)F` (single isomer, unassigned) [Cpd 050 - En2, N-(4,4-difluoropiperidin-3-yl)-2-methyl-5-[(pyridin-2-yl)methoxy]pyrazolo[1,5-a]pyridine-3-carboxamide] yielded an IC50 of 1 to 20 µM.

In turn, `Cc1nn2ccc(OCc3ccccc3Cl)cc2c1C(=O)NC(C)(C)C(N)=O` [Cpd 013, 2-({5-[(2-chlorophenyl)methoxy]-2-methylpyrazolo[1,5-a]pyridin-3-yl}formamido)-2-methylpropanamide] yielded a half-inhibitory concentration (IC50) of 1 to 20 µM.

With `Cc1nn2ccc(OCc3ccccc3F)cc2c1C(=O)N(C)C(C)(CO)C(N)=O` (single isomer, unassigned) [Cpd 024 - En1, 2-(1-{5-[(2-fluorophenyl)methoxy]-2-methylpyrazolo[1,5-a]pyridin-3-yl}-N-methylformamido)-3-hydroxy-2-methylpropanamide], the IC50 lay in the range of 1 to 20 µM.

As for `Cc1nn2ccc(OCc3ccccc3F)cc2c1C(=O)N[C@@H](CO)C(N)=O` [Cpd 003, (2S)-2-({5-[(2-fluorophenyl)methoxy]-2-methylpyrazolo[1,5-a]pyridin-3-yl}formamido)-3-hydroxypropanamide], the IC50 is below 1 µM.

On to `Cc1nn2ccc(OCc3ccccn3)cc2c1C(=O)NC(CO)Cc1ncccn1` (centres unmarked) [Cpd 079 - En 1], for which the 50% inhibitory concentration (IC50) is above 20 µM.

Take `Cc1nn2ccc(OCc3ccccn3)cc2c1C(=O)N[C@@]1(CO)C[C@H]1C(F)F` (relative stereo) [Cpd 072 - En2, N-[cis-2-(difluoromethyl)-1-(hydroxymethyl)cyclopropyl]-2-methyl-5-[(pyridin-2-yl)methoxy]pyrazolo[1,5-a]pyridine-3-carboxamide]: the IC50 was above 20 µM.

In turn, `Cc1nn2ccc(OCc3ccccc3F)cc2c1C(=O)N(C)C(C)(CO)C(N)=O` (single isomer, unassigned) [Cpd 024 - En2, 2-(1-{5-[(2-fluorophenyl)methoxy]-2-methylpyrazolo[1,5-a]pyridin-3-yl}-N-methylformamido)-3-hydroxy-2-methylpropanamide] returned a concentration for half-maximal inhibition (IC50) of 1 to 20 µM.

Turning to `Cc1nn2ccc(OCC3CC3)cc2c1C(=O)O` [Cpd 034, 5-(cyclopropylmethoxy)-2-methylpyrazolo[1,5-a]pyridine-3-carboxylic acid], the half-maximal inhibitory concentration (IC50) was above 20 µM.

In the case of `Cc1nn2ccc(OCc3ccccn3)cc2c1C(=O)NC(C)(CO)C(N)=O` (single isomer, unassigned) [Cpd 089 - En1, 3-hydroxy-2-methyl-2-({2-methyl-5-[(pyridin-2-yl)methoxy]pyrazolo[1,5-a]pyridin-3-yl}formamido)propanamide], the IC50 is above 20 µM.

Turning to `Cc1nn2ccc(OCc3ccccn3)cc2c1C(=O)NC(CO)C1CCOCC1` (centres unmarked) [Cpd 077 - En2], the 50% inhibitory concentration (IC50) is above 20 µM.

Values taken from US20250376468A1, “PYRAZOLO[1,5-a]PYRIDINE DERIVATIVES FOR TREATING TRPM3-MEDIATED DISORDERS” (Katholieke Universiteit Leuven, priority 2022, published 2025).
